Experiments:
PIGF/sVEGFR-1 = experiment: Maternal plasma PIGF/sVEGFR-1 concentration ratio; assay type: in vivo, human; conditions: pravastatin 20 mg once daily since 17+4 weeks, one pregnant subject
Description: (§1) Sample collection and immunoassays. Blood was obtained by venipuncture and collected into tubes containing EDTA. Samples were centrifuged and stored at −70° C. Maternal plasma concentrations of sVEGFR-1, PIGF, and sEng were determined by sensitive and specific immunoassays (R&D Systems). The inter- and intra-assay coefficients of variation (CV) were: 1.4% and 3.9% for sVEGFR-1, 2.3% and 4.6% for sEng, and 6.02% and 4.8%, respectively, for PIGF. The sensitivity of the assays was 16.97 […], 0.08 ng/ml for sEng, and 9.52 […]. The laboratory personnel performing the assays were blinded to the clinical information.
Quantile regression was used to calculate median analyte ratio concentrations (PIGF/sVEGFR-1, PIGF/sEng) conditional upon GA among uncomplicated pregnancies (n=886). MoM values were calculated for both analyte ratios for each subject. MoM cutoffs were calculated based on inspection of receiver operating characteristic (ROC) curves calculated for each outcome (stillbirth, late PE, severe late PE, and SGA without PE). Prognostic logistic regression models were constructed for each outcome, including the MoM cutoff and clinical risk factors. Covariables included in adjusted models were selected based on clinical knowledge. Model reduction was performed additionally based on the plausibility of regression coefficients, association with independent variables and the magnitude of change in the main effect parameter estimates. To account for potential model over-fitting, when van Houwelingen and le Cessie's heuristic shrinkage estimator fell below 0.85 (indicator of instability), bootstrap estimated linear shrinkage factors and Firth's penalized maximum likelihood estimation were used to calculate conservative estimates less likely to be affected by over-fitting.
Statistical Analysis. Proportions and 95% CI or medians and interquartile ranges were calculated for categorical and arithmetic variables. Pearson correlation coefficients were used to characterize bivariate relation among arithmetic variables. Quantile regression models were fitted to estimate expected medians of biochemical analyte concentrations and Doppler velocimetry PI as a function of gestational week at examination for women with uncomplicated term pregnancies. MoM were calculated for each biomarker (biochemical and sonographic) for each subject. […]

[1] = cited from earlier work
PIGF = experiment: Maternal plasma PIGF concentration by immunoassay; assay type: in vivo, human; conditions: pravastatin 20 mg once daily since 17+4 weeks, one pregnant subject
Description: as §1
(§2) Sample Collection and Immunoassays. Blood was obtained by venipuncture and collected into tubes containing EDTA at enrollment and every four weeks until the 24th week of gestation, as well as bi-weekly thereafter until delivery. Samples were centrifuged and stored at −70° C. Maternal plasma concentrations of sVEGFR-1, PIGF, and sEng were determined by immunoassays. The inter- and intra-assay coefficients of variation (CV) of the assays were: 1.4% and 3.9% for sVEGFR-1, 2.3% and 4.6% for sEng, and 6.02% and 4.8%, respectively, for PIGF. The sensitivities of the assays were 16.97 […], 0.08 ng/ml for sEng, and 9.52 […]. Laboratory personnel performing the assays were blinded to the clinical information.
(§3) The subject received subcutaneous 5000 units of heparin twice a day, 81 mg aspirin tablet daily, and IVIG 1 mg/kg every four weeks from the beginning of the current pregnancy. At 12 weeks and 2 days gestation, maternal PAPP-A concentration was low (1st percentile). […] However, bilateral UtA notching (mean UtA PI 2.23 (95th percentile)) was noted, and the plasma angiogenic/anti-angiogenic factor ratio concentrations were low. At 13, 15, and 17 weeks of gestation, plasma concentrations of sVEGFR-1 and sEng were extremely high (96th-98th percentile; see Table 9 and FIGS. 8A and 8C)), and those of PIGF were within normal limits (59th-62nd percentile; Table 9, FIG. 8B). The PIGF/sVEGFR-1 concentration ratios were low, in the 4th, 6th, and 10th percentiles, respectively (see FIG. 8D).
(§4) The subject was informed of these findings, of the poor prognosis associated with extremely high plasma sVEGFR-1 concentrations, and of the likelihood that this pregnancy, like their previous one, could be affected by MF. After being counseled extensively about the potential adverse events and issues of safety of pravastatin administration during pregnancy, and informed that there was little evidence from animal experiments that pravastatin could reverse angiogenic/anti-angiogenic factor imbalances, the subject was offered and opted to receive pravastatin 20 milligrams once daily at 17 weeks and 4 days of gestation. At 21 weeks of gestation, the plasma concentrations of sVEGFR-1 decreased to the normal range (56th percentile) while that of PIGF increased to 93rd percentile. Plasma sEng remained high, at the 94th percentile.
(§5) Sample Collection and Immunoassays. Venipuncture was performed serially at regular prenatal visits and admissions to the hospital for all normal and MPFD affected pregnancies. Blood was collected into tubes containing EDTA. Samples were centrifuged and stored at −70° C. until used for assay. Sensitive and specific immunoassays (R&D systems, Minneapolis, MN) were used to determine maternal plasma concentrations of PIGF, sEng, sVEGFR-1 and -2. All immunoassays utilized the quantitative sandwich enzyme immunoassay technique, and their concentrations in maternal plasma were determined by interpolation from the standard curves. The inter- and intra-assay coefficients of variation (CV) obtained in the laboratory were as follows: PIGF, 6.02 and 4.8%, respectively; s-Eng, 2.3 and 4.6%, respectively; sVEGFR-1, 1.4 and 3.9%, respectively; and sVEGFR-2, 2 and 4%, respectively. […]

sEng = experiment: Maternal plasma sEng concentration by immunoassay; assay type: in vivo, human; conditions: pravastatin 20 mg once daily since 17+4 weeks, one pregnant subject
Description: as §1, §2, §3, §4, §5

sVEGFR-1 = experiment: Maternal plasma sVEGFR-1 concentration by immunoassay; assay type: in vivo, human; conditions: pravastatin 20 mg once daily since 17+4 weeks, one pregnant subject
Description: as §1, §2, §3, §4, §5

[2] = cited from earlier work; remark: listed apart in the source
[3] = dually perfused term human placental lobule

SMILES: CC[C@H](C)C(=O)O[C@H]1C[C@H](O)C=C2C=C[C@H](C)[C@H](CC[C@@H](O)C[C@@H](O)CC(=O)O)[C@H]21 [pravastatin, Pravastatin]
- PIGF/sVEGFR-1 concentration ratio (PIGF/sVEGFR-1; GA 19+5 weeks): 0.07
- PIGF/sVEGFR-1 ratio, percentile for GA (PIGF/sVEGFR-1; GA 19+5 weeks): (23) percentile
- PIGF/sVEGFR-1 concentration ratio (PIGF/sVEGFR-1; GA 21+6 weeks): 0.34
- PIGF/sVEGFR-1 ratio, percentile for GA (PIGF/sVEGFR-1; GA 21+6 weeks): (90) percentile
- PIGF/sVEGFR-1 concentration ratio (PIGF/sVEGFR-1; GA 25+3 weeks): 0.27
- PIGF/sVEGFR-1 ratio, percentile for GA (PIGF/sVEGFR-1; GA 25+3 weeks): (51) percentile
- PIGF/sVEGFR-1 concentration ratio (PIGF/sVEGFR-1; GA 27+4 weeks): 0.22
- PIGF/sVEGFR-1 ratio, percentile for GA (PIGF/sVEGFR-1; GA 27+4 weeks): (34) percentile
- PIGF/sVEGFR-1 concentration ratio (PIGF/sVEGFR-1; GA 29+4 weeks): 0.18
- PIGF/sVEGFR-1 ratio, percentile for GA (PIGF/sVEGFR-1; GA 29+4 weeks): (25) percentile
- PIGF/sVEGFR-1 concentration ratio (PIGF/sVEGFR-1; GA 31+4 weeks): 0.08
- PIGF/sVEGFR-1 ratio, percentile for GA (PIGF/sVEGFR-1; GA 31+4 weeks): (10) percentile
- PIGF/sVEGFR-1 concentration ratio (PIGF/sVEGFR-1; GA 33+5 weeks): 0.04
- PIGF/sVEGFR-1 ratio, percentile for GA (PIGF/sVEGFR-1; GA 33+5 weeks): (6) percentile
- Pravastatin remained in the maternal circuit [1, 3]: 68%
- Pravastatin retained by the placental tissue [1, 3]: 14%
- Pravastatin transferred to the fetal circuit [1, 3]: 18%
- Direction of placental transfer ([1]; fetal to maternal versus maternal to fetal compartment): higher transfer of pravastatin from the fetal to the maternal compartment than the reverse
- Plasma concentration of PIGF (PIGF; GA 19+5 weeks): 306 pg/mL
- Plasma concentration of PIGF (PIGF; GA 21+6 weeks): 644 pg/mL
- Plasma concentration of PIGF (PIGF; GA 25+3 weeks): 768 pg/mL
- Plasma PIGF, percentile for GA (PIGF; GA 27+4 weeks): (74) percentile
- Plasma concentration of PIGF (PIGF; GA 27+4 weeks): 869 pg/mL
- Plasma PIGF, percentile for GA (PIGF; GA 29+4 weeks): (65) percentile
- Plasma concentration of PIGF (PIGF; GA 29+4 weeks): 821 pg/mL
- Plasma PIGF, percentile for GA (PIGF; GA 31+4 weeks): (44) percentile
- Plasma concentration of PIGF (PIGF; GA 31+4 weeks): 536 pg/mL
- Plasma concentration of PIGF (PIGF; GA 33+5 weeks): 528 pg/mL
- Plasma concentration of sEng (sEng; GA 19+5 weeks): 13.1 ng/mL
- Plasma sEng, percentile for GA (sEng; GA 19+5 weeks): (98) percentile
- Plasma concentration of sEng (sEng; GA 21+6 weeks): 8.7 ng/mL
- Plasma concentration of sEng (sEng; GA 25+3 weeks): 8.8 ng/mL
- Plasma sEng, percentile for GA (sEng; GA 25+3 weeks): (94) percentile
- Plasma concentration of sEng (sEng; GA 27+4 weeks): 9.9 ng/mL
- Plasma sEng, percentile for GA (sEng; GA 27+4 weeks): (95) percentile
- Plasma concentration of sEng (sEng; GA 29+4 weeks): 12.7 ng/mL
- Plasma sEng, percentile for GA (sEng; GA 29+4 weeks): (97) percentile
- Plasma concentration of sEng (sEng; GA 31+4 weeks): 9.6 ng/mL
- Plasma sEng, percentile for GA (sEng; GA 31+4 weeks): (85) percentile
- Plasma concentration of sEng (sEng; GA 33+5 weeks): 12.7 ng/mL
- Plasma sEng, percentile for GA (sEng; GA 33+5 weeks): (85) percentile
- Plasma concentration of sVEGFR-1 (sVEGFR-1; GA 19+5 weeks): 4148 pg/mL
- Plasma concentration of sVEGFR-1 (sVEGFR-1; GA 21+6 weeks): 1889 pg/mL
- Plasma concentration of sVEGFR-1 (sVEGFR-1; GA 25+3 weeks): 2854 pg/mL
- Plasma concentration of sVEGFR-1 (sVEGFR-1; GA 27+4 weeks): 3881 pg/mL
- Plasma sVEGFR-1, percentile for GA (sVEGFR-1; GA 27+4 weeks): (90) percentile
- Plasma concentration of sVEGFR-1 (sVEGFR-1; GA 29+4 weeks): 4684 pg/mL
- Plasma sVEGFR-1, percentile for GA (sVEGFR-1; GA 29+4 weeks): (93) percentile
- Plasma concentration of sVEGFR-1 (sVEGFR-1; GA 31+4 weeks): 6370 pg/mL
- Plasma sVEGFR-1, percentile for GA (sVEGFR-1; GA 31+4 weeks): (97) percentile
- Plasma concentration of sVEGFR-1 (sVEGFR-1; GA 33+5 weeks): 11202 pg/mL
- Abnormal pregnancy outcomes following exposure ([2]; humans, exposure during pregnancy): abnormal pregnancy outcomes were not reported

SMILES: CC[C@H](C)C(=O)O[C@H]1C[C@@H](C)C=C2C=C[C@H](C)[C@H](CC[C@@H]3C[C@@H](O)CC(=O)O3)[C@H]21 [lovastatin, Lovastatin]
- Adverse pregnancy outcomes, post marketing surveillance ([2]; subjects with an early exposure to these drugs): has not found any adverse pregnancy outcomes
